Values joined by “and” are separate entries in the source; they are usually repeats but may differ in a detail not shown here. Identical values can stand only once.
Key:
[1] = Metabolic stability in human liver microsomes; format: in vitro ADME; conditions: average, read-out: T1/2 of metabolism
Experimental: Thus, a pharmacokinetic study was performed for DBM in Sprague-Dawley (SD) rats. Following oral administration of menstruum or DBM at 200 mpk, blood samples from the rats were collected at 2 min, 5 min, 15 min, 30 min, 1 h, 2 h, 4 h, 8 h, and 24 h posttreatment. The concentration of DBM in the plasma was determined by liquid chromatography with tandem mass spectrometry (LC-MS/MS). The minimum effective concentration (MEC) line in the graph represents the EC95 value of DBM (Fig 3C). […] To analyse the metabolic stability of DBM, we incubated human and mouse liver microsomes with DBM. The T1/2 of metabolism was an average of 13.92 min in human liver microsomes and 4.84 min in mouse liver microsomes.

HCoV-OC43 = assay: Antiviral activity of DBM in the presence of IFN signalling suppressants; format: cell-based
Experimental: Fig 6 DBM-mediated downregulation of caspase-6 restores IFN signalling suppressed by the coronavirus nucleocapsid protein. A) Intracellular levels of HCoV-OC43 nucleocapsid proteins and caspase-6 in HCoV-OC43-infected cells treated with serially diluted DBM or Z-VEID-FMK. Cells were pretreated with gradient-diluted DBM or Z-VEID-FMK prior to viral infection. B) Inhibitory effects of DBM against HCoV-OC43 and EV71. Cells were pre-treated with gradient-diluted DBM for 1 hour before inoculated with HCoV-OC43 or EV71, respectively. C) Attenuation of antiviral effects of DBM in IFN signalling-deficient cell lines. HEK293T-AT and Vero E6 cells were pre-treated with gradient-diluted DBM for 1 hour before infection. […] Cells were pretreated with gradient-diluted DBM or Z-VEID-FMK for 24 h, and then transfected with coronaviruses nucleocapsid proteins expression plasmid, and after 16 h of transfection, cells were treated with DMSO or STS. E) DBM alleviated the suppression of IFNB1 expression induced by coronaviruses nucleocapsid proteins and caspase-6. Cells were pretreated with DMSO or DBM for 24 h, subsequently, transfected with Poly(I:C) and plasmids. F) Impact of IFN signalling suppressants on the antiviral activity of DBM. Cells were pretreated with DMSO, Ruxolitinib or IFN alpha-IFNAR-IN-1 hydrochloride, respectively, for 1 hour. Subsequently, a gradient dilution of DBM was added to the medium, and then HCoV-OC43 was inoculated into the cells. Data were statistically analysed with Student’s T test. *: p ≤ 0.05, **: p ≤ 0.01, ***: p ≤ 0.001, ****: p ≤ 0.0001; ns, not significant. The experiments were repeated three times independently with similar results.
On the basis of this finding, we hypothesized that DBM downregulates caspase-6, reduces the cleavage of nucleocapsid proteins, and thereby enhances IFN signalling to inhibit viral replication. To test this hypothesis, we incubated cells transfected with plasmids expressing coronavirus nucleocapsid proteins in the presence or absence of DBM or Z-VEID-FMK. […] As the reduction in cleaved nucleocapsid protein fragments could theoretically […] IFN signalling, we sought to investigate the relationship between DBM treatment and IFN signalling. To this end, we further transfected cells with plasmids expressing both caspase-6 and coronavirus nucleocapsid proteins, and subsequently incubated the cells with or without DBM. […] Whereas the other two apoptosis-executing caspases, caspase-3 and caspase-7, could not inhibit IFN signalling in a similar system (S8C Fig). Furthermore, we examined the expression of IFNB1 and its downstream IFN-stimulated genes following DBM treatment in the context of HCoV-OC43 infection (S8D and S8E Fig).

mammary tumorigenesis = system: mammary tumorigenesis; design: method as in PMID 11403916; conditions: dietary DBM, mice; cited from earlier work
enterovirus EV71 = format: cell-based
[2] = 1% DBM in the diet, mice; cited from earlier work

In the case of O=C(CC(=O)c1ccccc1)c1ccccc1 [DBM, dibenzoylmethane], the half-life [1] is reported as 13.9 min, the “Viral RNA copies (Fig6F)” value (HCoV-OC43; DBM 0.06, with DMSO) is reported as 8575323 and 7173199 and 8361273 and the “Viral RNA copies (Fig6F)” value (HCoV-OC43; DBM 0.06, with IFNi) is reported as 714000 and 1370000 and 1200000. The “Viral RNA copies (Fig6F)” value (HCoV-OC43; DBM 0.19, with DMSO) was 4042565 and 5441926 and 4875856, the “Viral RNA copies (Fig6F)” value (HCoV-OC43; DBM 0.19, with IFNi) was 1160000 and 961000 and 754000 and the “Viral RNA copies (Fig6F)” value (HCoV-OC43; DBM 0.19, with RUX) was 1920000 and 2400000 and 1530000. The “Viral RNA copies (Fig6F)” value (HCoV-OC43; DBM 0.56, with DMSO) was 380096 and 713734 and 725626, the “Viral RNA copies (Fig6F)” value (HCoV-OC43; DBM 0.56, with IFNi) was 1150000 and 922000 and 1030000 and the “Viral RNA copies (Fig6F)” value (HCoV-OC43; DBM 0.56, with RUX) was 1380000 and 2020000 and 2160000. The “Viral RNA copies (Fig6F)” value (HCoV-OC43; DBM 1.67, with DMSO) was 91512 and 73409 and 91292, the “Viral RNA copies (Fig6F)” value (HCoV-OC43; DBM 1.67, with IFNi) was 807000 and 1340000 and the “Viral RNA copies (Fig6F)” value (HCoV-OC43; DBM 1.67, with RUX) was 2040000 and 3700000. The “Viral RNA copies (Fig6F)” value (HCoV-OC43; DBM 5.00, with DMSO) was 87392 and 81273 and 92455, the “Viral RNA copies (Fig6F)” value (HCoV-OC43; DBM 5.00, with IFNi) was 1300000 and 976000 and 920000 and the “Viral RNA copies (Fig6F)” value (HCoV-OC43; DBM 5.00, with RUX) was 1880000 and 1760000 and 2040000. For the same compound, the “antiviral activity of DBM, cells pretreated with IFN alpha-IFNAR-IN-1 hydrochloride” value (HCoV-OC43; HCoV-OC43) was “markedly reduced”, the “antiviral activity of DBM, cells pretreated with ruxolitinib” value (HCoV-OC43; HCoV-OC43) was “markedly reduced” and the “reduction of tumor incidence” value (mammary tumorigenesis) was 97%. The “antiviral activity against EV71” value (enterovirus EV71) was “no antiviral activity” and the “safety of feeding in the diet” value [2] was “safe”.
